Tested on: emotional pain
Assay: Migraine open-label pilot study: emotional pain on 4-point scale (emotional pain-free, emotional pain intensity)
Type: in vivo, human
Experimental: Sixteen unique patients were enrolled in an open phase pilot study for the acute treatment of migraine attacks, insomnia, and emotional pain. Of the sixteen patients, eleven were evaluated for one migraine attack, one for two attacks, two for four attacks, one for six attacks, and one for fourteen attacks. A total of forty-one […] treatments were evaluated. Patients received a single dose of one of the following treatment options:
The majority of the patients remained in the clinic for observation for 2 hours after dosing. They completed headache diary assessments immediately before and after dosing at time points: 7, 15, and 30 minutes; and 1, 1.5, 2, 3, 6, 12, 24, and 48 hours. Headache pain was assessed on a 4-point scale (0=none; 1=mild; 2=moderate; 3=severe). The assessment of photophobia, phonophobia, nausea, and neck/shoulder pain was assessed as present or absent. The assessment of emotional pain was recorded on a 4-point scale (0=none, 1=mild, 2=moderate, 3=severe). The assessment of difficulty sleeping or falling asleep (insomnia) was assessed on a 4-point scale (0=none, 1=mild, 2=moderate, 3=severe) at baseline, for the night before treatment and for the following nights at 24, and 48 hours. Patients recorded side effects severity at each time point. Patients recorded the time of the first rescue medication dose and all additional headache medications used within 48 hours. Patients were required to stay awake to record their assessments in the first 2 hours, sleeping was permitted thereafter. While asleep, assessments were completed according to patients' best estimation. For data analysis, it was assumed that a migraine attack is a unique patient. Patients were asked to specify (yes or no answer) to whether they experienced emotional pain symptoms such as: hurt feelings, sadness, fear, or anger. Patients who replied positively to having emotional pain were asked to specify the cause into one of the following options: relationship, work/school, money/debt, health, or loss/grief.

O=C1CC[C@@]2(O)[C@H]3Cc4ccc(O)c5c4[C@@]2(CCN3CC2CC2)[C@H]1O5 [naltrexone]
emotional pain intensity decreased by (24-hour change from baseline, naltrexone 2.25 mg (n=9)): 55% | Emotional pain-free (7 min, NTX/APAP 2.25 mg/325 mg, NTX 2.25 mg): 1 (33) n (%) | Emotional pain-free (7 min, NTX/APAP 3.25 mg/325 mg, NTX 3.25 mg): 1 n (%) | Emotional pain-free (7 min, NTX/APAP 5 mg/325 mg, NTX 5 mg): 0 n (%) | Emotional pain-free (7 min, all doses combined): 2 (33) n (%) | Emotional pain-free (15 min, NTX/APAP 2.25 mg/325 mg, NTX 2.25 mg): 7 (77) n (%) | Emotional pain-free (15 min, NTX/APAP 3.25 mg/325 mg, NTX 3.25 mg): 2 n (%) | Emotional pain-free (15 min, NTX/APAP 5 mg/325 mg, NTX 5 mg): 0 n (%) | Emotional pain-free (15 min, NTX/APAP […]325 mg, NTX 1.5 mg): 2 n (%) | Emotional pain-free (15 min, all doses combined): 11 (69) n (%) | Emotional pain-free (30 min, NTX/APAP 2.25 mg/325 mg, NTX 2.25 mg): 8 (89) n (%) | Emotional pain-free (30 min, NTX/APAP 3.25 mg/325 mg, NTX 3.25 mg): 2 (66) n (%) | Emotional pain-free (30 min, NTX/APAP 5 mg/325 mg, NTX 5 mg): 1 (100) n (%) | Emotional pain-free (30 min, NTX/APAP […]325 mg, NTX 1.5 mg): 2 (66) n (%) | Emotional pain-free (30 min, all doses combined): 13 (87) n (%) | Emotional pain-free (1 h, NTX/APAP 2.25 mg/325 mg, NTX 2.25 mg): 9 (100) n (%) | Emotional pain-free (1 h, NTX/APAP 3.25 mg/325 mg, NTX 3.25 mg): 2 (66) n (%) | Emotional pain-free (1 h, NTX/APAP 5 mg/325 mg, NTX 5 mg): 1 n (%) | Emotional pain-free (1 h, NTX/APAP […]325 mg, NTX 1.5 mg): 2 (66) n (%) | Emotional pain-free (1 h, all doses combined): 14 (88) n (%) | Emotional pain-free (90 min, NTX/APAP 2.25 mg/325 mg, NTX 2.25 mg): 9 (100) n (%) | Emotional pain-free (90 min, NTX/APAP 3.25 mg/325 mg, NTX 3.25 mg): 3 (100) n (%) | Emotional pain-free (90 min, NTX/APAP 5 mg/325 mg, NTX 5 mg): 1 (100) n (%) | Emotional pain-free (90 min, NTX/APAP […]325 mg, NTX 1.5 mg): 3 (100) n (%) | Emotional pain-free (90 min, all doses combined): 16 (100) n (%) | Emotional pain-free (2 h, NTX/APAP 2.25 mg/325 mg, NTX 2.25 mg): 9 (100) n (%) | Emotional pain-free (2 h, NTX/APAP 3.25 mg/325 mg, NTX 3.25 mg): 3 (100) n (%) | Emotional pain-free (2 h, NTX/APAP 5 mg/325 mg, NTX 5 mg): 1 n (%) | Emotional pain-free (2 h, NTX/APAP […]325 mg, NTX 1.5 mg): 3 (100) n (%) | Emotional pain-free (2 h, combined doses): 16 (100) | Emotional pain-free (3 h, NTX/APAP 2.25 mg/325 mg, NTX 2.25 mg): 9 (100) n (%) | Emotional pain-free (3 h, NTX/APAP 3.25 mg/325 mg, NTX 3.25 mg): 3 (100) n (%) | Emotional pain-free (3 h, NTX/APAP 5 mg/325 mg, NTX 5 mg): 1 (100) n (%) | Emotional pain-free (3 h, NTX/APAP […]325 mg, NTX 1.5 mg): 3 (100) n (%) | Emotional pain-free (3 h, combined doses): 16 (100) n (%) | Emotional pain-free (4 h, NTX/APAP 2.25 mg/325 mg, NTX 2.25 mg): 9 (100) n (%) | Emotional pain-free (4 h, NTX/APAP 3.25 mg/325 mg, NTX 3.25 mg): 3 (100) n (%) | Emotional pain-free (4 h, NTX/APAP 5 mg/325 mg, NTX 5 mg): 1 (100) n (%) | Emotional pain-free (4 h, NTX/APAP […]325 mg, NTX 1.5 mg): 3 (100) n (%) | Emotional pain-free (4 h, combined doses): 15 (94) n (%) | Emotional pain-free (6 h, NTX/APAP 2.25 mg/325 mg, NTX 2.25 mg): 9 (100) n (%) | Emotional pain-free (6 h, NTX/APAP 3.25 mg/325 mg, NTX 3.25 mg): 3 (100) n (%) | Emotional pain-free (6 h, NTX/APAP 5 mg/325 mg, NTX 5 mg): 1 (100) n (%) | Emotional pain-free (6 h, NTX/APAP […]325 mg, NTX 1.5 mg): 3 (100) n (%) | Emotional pain-free (6 h, combined doses): 15 (94) n (%) | Emotional pain-free (12 h, NTX/APAP 2.25 mg/325 mg, NTX 2.25 mg): 9 (100) n (%) | Emotional pain-free (12 h, NTX/APAP 3.25 mg/325 mg, NTX 3.25 mg): 3 (100) n (%) | Emotional pain-free (12 h, NTX/APAP 5 mg/325 mg, NTX 5 mg): 1 (100) n (%) | Emotional pain-free (12 h, NTX/APAP […]325 mg, NTX 1.5 mg): 3 (100) n (%) | Emotional pain-free (12 h, combined doses): 15 (94) n (%) | Emotional pain-free (24 h, NTX/APAP 2.25 mg/325 mg, NTX 2.25 mg): 9 (100) n (%) | Emotional pain-free (24 h, NTX/APAP 3.25 mg/325 mg, NTX 3.25 mg): 3 (100) n (%) | Emotional pain-free (24 h, NTX/APAP 5 mg/325 mg, NTX 5 mg): 1 (100) n (%) | Emotional pain-free (24 h, NTX/APAP […]325 mg, NTX 1.5 mg): 3 (100) n (%) | Emotional pain-free (24 h, combined doses): 15 (94) | Emotional Pain-free at 24 hours after dosing (24 hours after dosing, NTX/APAP 2.25 mg/325 mg, NTX 2.25 mg): 9 (100) n (%) | Emotional Pain-free at 24 hours after dosing (24 hours after dosing, NTX/APAP 3.25 mg/325 mg, NTX 3.25 mg): 3 n (%) | Emotional Pain-free at 24 hours after dosing (24 hours after dosing, NTX/APAP 5 mg/325 mg, NTX 5 mg): 1 n (%) | Emotional Pain-free at 24 hours after dosing (24 hours after dosing, NTX/APAP […]325 mg, NTX 1.5 mg): 3 n (%) | emotional pain intensity change from baseline (24 hours after dosing, naltrexone/acetaminophen 2.25 mg/325 mg (N=21), naltrexone 2.25 mg (N=9)): −55%
